Patent US20240300945A1, “CLY SERIES COMPOUND, PREPARATION METHOD THEREFOR AND USE THEREOF IN PREPARATION OF DRUGS” (NANJING WELLBEST PHARMACEUTICAL CO., LTD, priority 2021, published 2024)

Legend:
rat scar model = assay: Rat scar model (skin wound healing); format: in vivo; conditions: rat back wound 2.4 cm; 0.5% cream on the skin
Source text: 1.1 Preparation method of treatment cream: The excipient matrix components included methyl silicone oil (15%), stearic acid (6%), white vaseline (5%), liquid paraffin (5%), octadecanol (5%), glycerin (20%), alkylaryl polyglycol ether (1%), fatty alcohol polyoxyethylene ether (1%), […] (1%), ethyl paraben (0.1%), distilled water (about 31-55%), and mixed with appropriate amount of CLY series compounds to form a mixed emulsion. The emulsion matrix used in this embodiment refers to the matrix component after the active ingredient was removed from the emulsion.
1.2 Grouping and modeling of experimental animals: SPF grade male rats, weighing (210±28) g, from the Animal Center of Nanyi University. The rats were numbered according to their body weight and using the random array method, samples were divided into the model control group (applied cream matrix), CLY-1 treatment group (applied 0.5% CLY-1 cream on the skin), CLY-2 treatment group (applied 0.5% CLY-2 cream on the skin), CLY-3 treatment group (0.5% CLY-3 cream on the skin), CLY-4 treatment group (0.5% CLY-4 cream on the skin), CLY-8 treatment group (0.5% CLY-8 cream on the skin), CLY-11 treatment group (0.5% CLY-11 cream on the skin) CLY-19 treatment group (0.5% CLY-19 cream on the skin), CLY-36 treatment group (0.5% CLY-36 cream on the skin), and CLY-39 treatment group (0.5% CLY-39 cream on the skin), 6 in each group. Rats in each group were anesthetized by intraperitoneal injection of 2% pentobarbital sodium (120 mg/kg) and fixed on the operating table, and then chose a piece of 4×5 cm of intact skin on the back, 8% sodium sulfide hair removal, used tissue scissors to cut a wound with a diameter of 2.4 cm and a depth of muscle fascia at the hair removal site, and damage part of the muscle surface fascia. Animals were kept in separate cages to prevent rats from biting and licking. Applied 2% iodine tincture daily to the wound for routine disinfection, and observed the wound healing of rats.
The wounds were routinely disinfected every day, and the wounds of rats were observed on the 1st, 3rd, 5th, 7th, 12th, and 20th days. […] On the 12th day, the wounds in each treatment group had basically recovered, while the model group still had about 0.5 cm2 of wounds. By the 20th day, the wounds in each group had recovered, and the model control group left obvious scars, while each treatment group only left different amounts of pigmentation.

RA model = assay: Rheumatoid arthritis (RA) model (Freund's adjuvant complete); format: in vivo, Wistar rats; conditions: RA rats, gavage 10 mg/kg once a day, 21 days; for IL-10 in serum / IL-17 in serum: ELISA; for Joint score (arthritis score): maximum 16 points
Description: Freund's Adjuvant Complete (FCA, purchased from Sigma, USA); IL-10 ELISA kit (Lianke Biotechnology Co., Ltd.); IL-17 ELISA kit (Raybiotech, USA). Eighteen 5-week-old female Wistar rats were randomly divided into the control group, RA model group, and CLY series compound treatment group, with 6 rats in each group. The control group: disinfected the right toe of rats with 75% alcohol, and injected 0.15 mL physiological saline subcutaneously into the right toe of rats. The RA model group: On the first day of the experiment, each rat was routinely disinfected, and 0.15 mL of FCA was injected subcutaneously into the right foot of the rat. The CLY series compound treatment group: On the first day after the experiment, each rat was routinely disinfected, and 0.15 mL of FCA was injected subcutaneously into the right plantar of the rat. After 7 days, CLY series compound was administered by gavage with a dose of 10 mg/kg once a day. The RA model group and control group were administered by gavage with normal saline (10 mg/kg·d) every day for 21 consecutive days. On the 21st day after the intervention of CLY series compounds, 3 mL of blood was collected from the heart of rats, and the serum was isolated. The levels of IL-10 and IL-17 in the serum of rats were detected by ELISA. After the 21st day of intervention, the arthritis score of each group of rats was measured, and the swelling degree of the right toe joint of each group of rats was measured. According to the inflammatory reaction of RA rats, the severity of the ankle joint was scored as 0 to 4, which was normal; 1 point, slightly red and slightly swollen ankle joint; 2 points: erythema and slight swelling from ankle joint to metatarsal joint or metacarpal joint; 3 points: erythema and moderate swelling from ankle joint to metacarpal joint or metatarsophalangeal joint; 4 points, the ankle joint to toe joint were severely red and swollen. Added the limb scores of each rat as the arthritis score, and the maximum score was 16 points.

[1] = test system: rat pulmonary fibrosis model; assay: Rat pulmonary fibrosis model (bleomycin); format: in vivo, Wistar rats; conditions: 3 mg/kg·d tail vein, 14 days; for VEGFprotein in lung tissue / MMP-2 expression in lung tissue / MMP-9 expression in lung tissue / TIMP-1 expression in lung tissue / VEGF-mRNA in lung tissue: rat lung; for VEGFprotein in lung tissue: ELISA; for MMP-2 expression in lung tissue / MMP-9 expression in lung tissue / TIMP-1 expression in lung tissue: immunohistochemistry; for VEGF-mRNA in lung tissue: reverse transcription PCR; for CAT in peripheral blood / SOD in peripheral blood: rat peripheral blood
Description: (1) Reagents: bleomycin (4 mg/dose, Tianjin Taihe Pharmaceutical Co., Ltd.), mouse anti-mouse MMP monoclonal antibody (NEO Mark-ers Company), mouse anti-mouse TIMP-1 polyclonal antibody (Wuhan Shide Company), enzyme-linked immunosorbent assay (ELISA) kit (R&D Company of the United States), Quantscript RT Kit reverse transcription kit (Dalian TaKaRa Company).
The rats were, according to the number of body weight, divided into the blank control group, model group, and CLY series treatment group by random array method, with 12 rats in each group, half male and half female. The rats in each group were anesthetized by intraperitoneal injection of 2% pentobarbital sodium ([…]), fixed on the operating table, and injected by tracheotomy in the neck. The blank control group was injected with normal saline (1.25 ml/kg), and the model group and CLY treatment group were injected with 5 U/mL bleomycin solution (5 mg/kg), once a day, for 14 consecutive days. From one week after the establishment of the model, the corresponding CLY compound solution (3 mg/kg·d) was injected into the tail vein of each treatment group, and the same amount of normal saline was injected into the tail vein of the blank control group and the model group, once a day, for 14 consecutive days.
The peripheral venous blood of animals in each group was taken from the tail vein after modeling and 14 days after treatment, and the levels of superoxide dismutase (SOD) and catalase (CAT) in peripheral blood were measured. After taking blood from each group, the rats were sacrificed twice (after modeling and 14 days of treatment). The right lung tissue of the animals was stored in a refrigerator at −4° C. for detection of VEGF. The left lung tissue was routinely embedded in paraffin and sectioned. The expression of MMP subtype and TIMP-1 in the lung tissue of the rats was detected by immunohistochemistry. The right lung tissue was ground and homogenized, and the supernatant was taken after 3000 r/min high-speed centrifugation. The lung tissue VEGF protein was detected by ELISA, and the expression of VEGF-mRNA was detected by reverse transcription polymerase chain reaction.

SMILES | skin wound healing and scar formation (rat scar model) | Body mass (RA model) | Swelling degree (right toe joint) (RA model) | IL-10 in serum (RA model) | IL-17 in serum (RA model) | Joint score (arthritis score) (RA model) | VEGFprotein in lung tissue [1] | MMP-2 expression in lung tissue [1] | MMP-9 expression in lung tissue [1] | TIMP-1 expression in lung tissue [1] | VEGF-mRNA in lung tissue [1] | CAT in peripheral blood [1] | SOD in peripheral blood [1]
Nc1ccccc1-c1ccc(C(=O)N(c2ncccc2Cl)[C@@H]2CCCNC2)cc1 [CLY-39] | significantly promote skin wound healing and reduce scar formation | – | – | – | – | – | – | – | – | – | – | – | –
O=C(c1ccc(-c2ccccc2Cl)cc1)N(c1ncccc1Cl)[C@@H]1CCCNC1 [CLY-36] | significantly promote skin wound healing and reduce scar formation | 352.6 ± 12.96 g | 9.3 ± 0.51 mm | 58.96 ± 5.89 pg/mL | 44.18 ± 3.97 pg/mL | 4.46 ± 0.42 | 53.87 ± 3.73 pg/mL | 2.59 ± 0.23 | 3.46 ± 0.25 | 7.63 ± 0.52 | 0.83 ± 0.13 | 13.26 ± 1.26 kU/g | 221.76 ± 13.57 U/ml
O=C(c1ccc(-c2ccccc2-c2nnn[nH]2)cc1)N(c1ncccc1Cl)[C@@H]1CCCNC1 [CLY-19] | significantly promote skin wound healing and reduce scar formation | – | – | – | – | – | – | – | – | – | – | – | –
NC1CCCC(N(C(=O)c2ccc(-n3nnc4cccnc43)cc2)c2ncccc2Cl)C1 (stereo not shown) [CLY-11] | significantly promote skin wound healing and reduce scar formation | – | – | – | – | – | 49.86 ± 3.58 pg/mL | 2.52 ± 0.23 | 3.53 ± 0.26 | 8.13 ± 0.38 | 0.76 ± 0.13 | 13.96 ± 1.36 kU/g | 216.48 ± 13.16 U/ml
O=C(c1ccc(-n2nnc3cccnc32)cc1)N(c1ncccc1Cl)[C@@H]1CCNC1 [CLY-8, (R)-4-(3H-[1,2,3]triazolo[4,5-b]pyridin-3-yl)-N-(3-chloropyridin-2-yl)-N-(pyrrolidin-3-yl)benzamide] | significantly promote skin wound healing and reduce scar formation | 363.5 ± 13.63 g | 9.5 ± 0.72 mm | 66.75 ± 6.78 pg/mL | 43.51 ± 4.16 pg/mL | 4.32 ± 0.41 | 53.16 ± 3.62 pg/mL | 2.44 ± 0.21 | 3.31 ± 0.21 | 8.82 ± 0.53 | 0.79 ± 0.13 | 14.75 ± 1.22 kU/g | 220.86 ± 13.78 U/ml
O=C(c1ccc(-n2nnc3cccnc32)cc1)N(c1ncccc1Cl)C1CCCC(O)C1 (stereo not shown) [CLY-4] | significantly promote skin wound healing and reduce scar formation | – | – | – | – | – | – | – | – | – | – | – | –
CCN1CCC[C@@H](N(C(=O)c2ccc(-n3nnc4cccnc43)cc2)c2ncccc2Cl)C1 [CLY-2, (R)-4-(3H-[1,2,3]triazolo[4,5-b]pyridin-3-yl)-N-(3-chloropyridin-2-yl)-N-(1-ethylpiperidin-3-yl)benzamide] | significantly promote skin wound healing and reduce scar formation | 358.2 ± 13.92 g | 9.4 ± 0.53 mm | 67.03 ± 7.02 pg/mL | 46.23 ± 3.96 pg/mL | 4.21 ± 0.29 | 51.18 ± 3.69 pg/mL | 2.51 ± 0.24 | 3.36 ± 0.25 | 8.06 ± 0.49 | 0.71 ± 0.12 | 14.28 ± 1.39 kU/g | 216.62 ± 13.55 U/ml
CN1CCC[C@@H](N(C(=O)c2ccc(-n3nnc4cccnc43)cc2)c2ncccc2Cl)C1 [CLY-1, (R)-4-(3H-[1,2,3]triazolo[4,5-b]pyridin-3-yl)-N-(3-chloropyridin-2-yl)-N-(1-methylpiperidin-3-yl)benzamide] | significantly promote skin wound healing and reduce scar formation | 354.5 ± 13.48 g | 9.7 ± 0.68 mm | 65.36 ± 6.78 pg/mL | 46.15 ± 4.23 pg/mL | 4.35 ± 0.37 | 52.16 ± 3.61 pg/mL | 2.43 ± 0.21 | 3.32 ± 0.23 | 7.82 ± 0.45 | 0.76 ± 0.11 | 14.13 ± 1.22 kU/g | 214.58 ± 13.53 U/ml
CNC1CCCC(N(C(=O)c2ccc(-n3nnc4cccnc43)cc2)c2ncccc2Cl)C1 (stereo not shown) [CLY-3] | significantly promote skin wound healing and reduce scar formation | – | – | – | – | – | – | – | – | – | – | – | –
